The nature of data set [1]: Antiepileptic activity in WAG/Rij rat model of generalized nonconvulsive absence like epilepsy implanted with telemetric transmitter assessed as reduction in number of seizures at 100 mg/kg, po administered as single dose at nocturnal active phase measured after 3 hrs by […] analysis. It counts as functional, organism-based. Set-up: scale not given: the % may be the effect or the level left.

Data set [2] in a line: Antiepileptic activity in WAG/Rij rat model of generalized nonconvulsive absence like epilepsy implanted with telemetric transmitter assessed as reduction in cumulated duration of seizures at 100 mg/kg, po administered as single dose at nocturnal active phase measured after 12 hrs by […] analysis. It counts as functional, organism-based. The arrangement: scale not given: the % may be the effect or the level left.

A short description of data set [3]: Antiepileptic activity in WAG/Rij rat model of generalized nonconvulsive absence like epilepsy implanted with telemetric transmitter assessed as reduction in number of seizures at 100 mg/kg, po administered as single dose at nocturnal active phase measured after 12 hrs by […] analysis relative to control. It counts as functional, organism-based. Set-up: scale not given: the % may be the effect or the level left.

For data set [4], the target named is Voltage-dependent T-type calcium channel subunit alpha-1I (Homo sapiens, UniProt Q9P0X4). The data set can be described thus: Channel blocking activity at recombinant human CaV 3.3 channel expressed in HEK293 cells assessed as inhibition of Ca2+ flux preincubated for 3 mins followed by CaCl2 addition by fluo-4 dye-based FLIPR assay. It counts as cell-based. In general terms: Calcium assays in cells follow changes in intracellular calcium, usually with a dye or a luminescent sensor.
Sequence of Voltage-dependent T-type calcium channel subunit alpha-1I (Q9P0X4 whole entry): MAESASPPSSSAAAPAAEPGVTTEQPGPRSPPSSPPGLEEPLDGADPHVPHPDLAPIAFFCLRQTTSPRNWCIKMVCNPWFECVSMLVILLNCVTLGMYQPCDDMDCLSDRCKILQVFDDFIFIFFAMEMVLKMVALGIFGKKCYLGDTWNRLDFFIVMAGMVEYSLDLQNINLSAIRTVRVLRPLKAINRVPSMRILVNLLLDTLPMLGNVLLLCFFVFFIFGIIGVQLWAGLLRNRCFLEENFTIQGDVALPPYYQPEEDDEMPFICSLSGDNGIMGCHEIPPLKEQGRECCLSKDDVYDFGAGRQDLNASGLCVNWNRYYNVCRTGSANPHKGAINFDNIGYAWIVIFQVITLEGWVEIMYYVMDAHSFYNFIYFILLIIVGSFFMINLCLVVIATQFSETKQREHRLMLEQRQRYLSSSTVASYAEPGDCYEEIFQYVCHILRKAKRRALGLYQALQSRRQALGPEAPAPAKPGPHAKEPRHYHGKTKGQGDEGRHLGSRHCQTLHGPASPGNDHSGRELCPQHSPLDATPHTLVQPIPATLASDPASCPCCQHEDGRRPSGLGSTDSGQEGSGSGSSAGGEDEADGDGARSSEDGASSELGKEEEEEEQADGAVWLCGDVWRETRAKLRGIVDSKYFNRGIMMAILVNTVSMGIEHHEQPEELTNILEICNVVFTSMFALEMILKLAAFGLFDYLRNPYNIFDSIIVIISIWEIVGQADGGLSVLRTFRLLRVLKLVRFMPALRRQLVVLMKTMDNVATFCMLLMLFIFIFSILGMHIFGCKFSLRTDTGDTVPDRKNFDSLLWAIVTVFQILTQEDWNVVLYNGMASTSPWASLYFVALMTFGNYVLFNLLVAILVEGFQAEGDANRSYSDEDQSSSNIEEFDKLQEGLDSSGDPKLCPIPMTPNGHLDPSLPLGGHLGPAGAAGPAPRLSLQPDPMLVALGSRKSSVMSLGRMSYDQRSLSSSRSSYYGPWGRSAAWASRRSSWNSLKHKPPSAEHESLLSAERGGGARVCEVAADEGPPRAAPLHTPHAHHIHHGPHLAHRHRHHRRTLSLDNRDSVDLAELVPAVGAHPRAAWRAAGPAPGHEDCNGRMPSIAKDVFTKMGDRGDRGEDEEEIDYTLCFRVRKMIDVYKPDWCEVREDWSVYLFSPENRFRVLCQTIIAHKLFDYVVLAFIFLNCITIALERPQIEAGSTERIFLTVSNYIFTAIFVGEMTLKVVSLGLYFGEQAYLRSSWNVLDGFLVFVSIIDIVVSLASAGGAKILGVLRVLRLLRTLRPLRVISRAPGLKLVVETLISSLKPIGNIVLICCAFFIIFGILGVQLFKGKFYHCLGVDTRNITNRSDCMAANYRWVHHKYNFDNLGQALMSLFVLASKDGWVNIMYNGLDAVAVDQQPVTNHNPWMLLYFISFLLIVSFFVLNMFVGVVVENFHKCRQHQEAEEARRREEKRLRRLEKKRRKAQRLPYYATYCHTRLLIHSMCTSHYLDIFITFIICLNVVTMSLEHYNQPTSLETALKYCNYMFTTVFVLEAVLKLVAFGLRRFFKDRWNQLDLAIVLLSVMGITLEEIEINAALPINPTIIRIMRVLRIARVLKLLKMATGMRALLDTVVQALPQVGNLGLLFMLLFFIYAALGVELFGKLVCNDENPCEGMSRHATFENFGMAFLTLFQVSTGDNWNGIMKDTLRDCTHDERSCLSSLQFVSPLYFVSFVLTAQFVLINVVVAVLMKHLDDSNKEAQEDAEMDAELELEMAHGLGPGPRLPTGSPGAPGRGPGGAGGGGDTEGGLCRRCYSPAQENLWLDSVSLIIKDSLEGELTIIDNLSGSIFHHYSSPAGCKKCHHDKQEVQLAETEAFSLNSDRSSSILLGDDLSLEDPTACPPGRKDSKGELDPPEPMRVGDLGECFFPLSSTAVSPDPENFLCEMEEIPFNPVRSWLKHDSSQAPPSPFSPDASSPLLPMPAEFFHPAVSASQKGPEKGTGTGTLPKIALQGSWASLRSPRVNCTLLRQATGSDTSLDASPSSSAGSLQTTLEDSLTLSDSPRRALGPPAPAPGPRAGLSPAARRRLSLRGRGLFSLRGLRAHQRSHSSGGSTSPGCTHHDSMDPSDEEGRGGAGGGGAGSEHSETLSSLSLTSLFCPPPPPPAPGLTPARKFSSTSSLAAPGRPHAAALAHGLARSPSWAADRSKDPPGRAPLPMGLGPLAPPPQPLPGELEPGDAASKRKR

The subject of a further data set is Rattus norvegicus. The data set can be described thus: Toxicity in WAG/Rij rat model of generalized nonconvulsive absence like epilepsy at 100 mg/kg, po administered as single dose. As to conditions: in vivo. It counts as organism-based.
The target of data set [5] is Voltage-dependent T-type calcium channel subunit alpha-1H (Homo sapiens, UniProt O95180). Description: Channel blocking activity at recombinant human CaV 3.2 channel expressed in HEK293 cells assessed as inhibition of Ca2+ flux preincubated for 3 mins followed by CaCl2 addition by fluo-4 dye-based FLIPR assay. It counts as cell-based.
Sequence of Voltage-dependent T-type calcium channel subunit alpha-1H (O95180 whole entry): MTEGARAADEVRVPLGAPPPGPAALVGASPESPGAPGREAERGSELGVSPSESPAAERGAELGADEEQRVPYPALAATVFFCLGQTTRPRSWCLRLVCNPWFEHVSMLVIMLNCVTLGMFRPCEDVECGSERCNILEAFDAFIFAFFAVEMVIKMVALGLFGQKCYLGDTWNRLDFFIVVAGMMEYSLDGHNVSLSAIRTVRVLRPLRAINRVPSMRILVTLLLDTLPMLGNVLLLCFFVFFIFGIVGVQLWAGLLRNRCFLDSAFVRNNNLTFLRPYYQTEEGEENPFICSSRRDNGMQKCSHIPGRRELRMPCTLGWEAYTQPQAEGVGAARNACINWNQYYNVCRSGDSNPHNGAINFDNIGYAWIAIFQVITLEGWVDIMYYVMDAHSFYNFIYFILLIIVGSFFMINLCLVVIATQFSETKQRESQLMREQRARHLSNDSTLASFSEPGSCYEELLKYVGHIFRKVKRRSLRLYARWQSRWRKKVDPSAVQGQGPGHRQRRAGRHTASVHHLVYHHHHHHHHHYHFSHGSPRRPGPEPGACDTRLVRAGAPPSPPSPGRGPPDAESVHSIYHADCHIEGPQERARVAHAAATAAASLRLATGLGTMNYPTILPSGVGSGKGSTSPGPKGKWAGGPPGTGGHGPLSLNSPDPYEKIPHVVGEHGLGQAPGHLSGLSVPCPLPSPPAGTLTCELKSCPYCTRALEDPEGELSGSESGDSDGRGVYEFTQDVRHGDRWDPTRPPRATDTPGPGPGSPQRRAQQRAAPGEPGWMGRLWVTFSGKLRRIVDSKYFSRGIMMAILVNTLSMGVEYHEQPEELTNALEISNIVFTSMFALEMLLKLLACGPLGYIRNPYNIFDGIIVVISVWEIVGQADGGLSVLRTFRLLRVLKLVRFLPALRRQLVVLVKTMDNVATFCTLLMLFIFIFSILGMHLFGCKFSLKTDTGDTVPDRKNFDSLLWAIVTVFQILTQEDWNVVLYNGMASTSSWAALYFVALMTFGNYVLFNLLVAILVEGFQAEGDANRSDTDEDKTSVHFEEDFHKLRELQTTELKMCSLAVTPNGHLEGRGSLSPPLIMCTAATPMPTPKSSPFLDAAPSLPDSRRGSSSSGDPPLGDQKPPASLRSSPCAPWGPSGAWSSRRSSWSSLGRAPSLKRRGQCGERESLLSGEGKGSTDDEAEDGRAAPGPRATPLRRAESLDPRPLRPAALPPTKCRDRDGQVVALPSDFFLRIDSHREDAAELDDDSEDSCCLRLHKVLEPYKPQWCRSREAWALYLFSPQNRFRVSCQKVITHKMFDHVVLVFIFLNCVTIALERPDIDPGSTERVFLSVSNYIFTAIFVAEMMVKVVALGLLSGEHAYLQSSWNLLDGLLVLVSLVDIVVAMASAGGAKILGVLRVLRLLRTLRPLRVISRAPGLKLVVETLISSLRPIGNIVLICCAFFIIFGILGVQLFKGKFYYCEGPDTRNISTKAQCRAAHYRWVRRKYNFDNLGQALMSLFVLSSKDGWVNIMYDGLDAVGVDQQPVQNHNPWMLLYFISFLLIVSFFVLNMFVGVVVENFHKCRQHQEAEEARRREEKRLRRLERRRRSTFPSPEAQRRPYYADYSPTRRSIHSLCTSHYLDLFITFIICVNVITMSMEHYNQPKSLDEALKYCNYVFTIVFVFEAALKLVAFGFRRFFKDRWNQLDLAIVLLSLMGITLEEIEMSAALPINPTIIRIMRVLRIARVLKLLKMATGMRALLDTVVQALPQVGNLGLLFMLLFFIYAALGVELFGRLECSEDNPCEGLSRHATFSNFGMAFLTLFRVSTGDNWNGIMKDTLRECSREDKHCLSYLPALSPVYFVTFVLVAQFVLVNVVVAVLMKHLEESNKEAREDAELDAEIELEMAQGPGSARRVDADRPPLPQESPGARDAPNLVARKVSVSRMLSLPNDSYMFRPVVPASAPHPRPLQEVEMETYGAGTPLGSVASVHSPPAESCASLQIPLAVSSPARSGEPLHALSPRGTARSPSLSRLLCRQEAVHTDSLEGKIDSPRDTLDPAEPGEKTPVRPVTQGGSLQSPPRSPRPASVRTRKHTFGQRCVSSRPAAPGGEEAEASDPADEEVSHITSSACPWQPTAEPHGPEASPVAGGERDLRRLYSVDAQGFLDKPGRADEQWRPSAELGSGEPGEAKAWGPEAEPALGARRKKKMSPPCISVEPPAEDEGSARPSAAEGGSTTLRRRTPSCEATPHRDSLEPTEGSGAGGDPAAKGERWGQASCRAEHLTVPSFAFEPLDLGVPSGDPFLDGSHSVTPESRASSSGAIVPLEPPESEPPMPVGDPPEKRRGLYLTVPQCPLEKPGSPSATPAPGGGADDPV
Another data set deals with Cytochrome P450 3A4 (Homo sapiens, UniProt P08684). The data set can be described thus: Inhibition of CYP3A4 (unknown origin). It counts as ADME.
Sequence of Cytochrome P450 3A4 (P08684 whole entry): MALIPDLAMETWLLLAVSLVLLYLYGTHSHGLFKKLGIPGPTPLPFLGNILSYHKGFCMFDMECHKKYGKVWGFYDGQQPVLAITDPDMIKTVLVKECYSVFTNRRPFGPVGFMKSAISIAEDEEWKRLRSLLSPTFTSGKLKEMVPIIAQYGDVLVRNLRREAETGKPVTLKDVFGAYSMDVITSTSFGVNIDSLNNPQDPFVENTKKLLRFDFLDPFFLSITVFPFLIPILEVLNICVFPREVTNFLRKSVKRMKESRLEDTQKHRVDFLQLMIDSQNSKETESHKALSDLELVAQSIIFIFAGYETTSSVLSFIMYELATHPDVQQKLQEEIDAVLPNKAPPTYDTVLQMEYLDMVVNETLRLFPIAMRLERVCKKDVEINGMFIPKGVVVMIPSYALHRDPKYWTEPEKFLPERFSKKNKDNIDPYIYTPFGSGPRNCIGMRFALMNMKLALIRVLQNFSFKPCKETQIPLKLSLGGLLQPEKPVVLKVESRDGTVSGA
For data set [6], the target named is Voltage-dependent T-type calcium channel subunit alpha-1G (Homo sapiens, UniProt O43497). The data set can be described thus: Channel blocking activity at recombinant human CaV 3.1 channel expressed in HEK293 cells assessed as inhibition of Ca2+ flux preincubated for 3 mins followed by CaCl2 addition by fluo-4 dye-based FLIPR assay. It counts as cell-based.
A short description of data set [7]: Solubility of the compound at pH 7. It counts as physicochemical. To be noted: buffer.
Data set [8] can be described thus: Drug metabolism in human liver microsomes assessed as (+/-)-1-((3R,5S)-3,5-dimethyl-2,3-dihydro-1H-benzo[e][1,4]diazepin-4(5H)-yl)-3-methoxypropan-1-one metabolite formation at 10 uM after 30 mins by LC-MS/MS analysis. It counts as ADME. As to conditions: 0.5 h.
Data set [9] in a line: Intrinsic clearance in human liver microsomes at 1 uM up to 15 mins in presence of NADPH by LC-MS-MS analysis. As to conditions: read-out: CLH. It counts as ADME. On the technique in general: Microsomes from liver hold many membrane-bound enzymes, among them those of drug oxidation.
Data set [10] can be described thus: Solubility of the compound in fed state simulated intestinal fluid. To be noted: fed state simulated intestinal fluid (FeSSIF). It is filed as ADME.
Data set [11] is described as follows: Intrinsic clearance in Wistar rat liver microsomes at 1 uM up to 15 mins in presence of NADPH by LC-MS-MS analysis. It is filed as ADME. To be noted: read-out: CLH.
Data set [12] can be described thus: Solubility of the compound in fast state simulated intestinal fluid. It is filed as ADME. As to conditions: fasted state simulated intestinal fluid (FaSSIF).
Data set [13] is described as follows: Drug level in human liver microsomes treated with (+/-)-1-((3R,5S)-1-benzyl-3,5-dimethyl-2,3-dihydro-1H-benzo[e][1,4]diazepin-4(5H)-yl)-3-methoxypropan-1-one at 10 uM after 30 mins by LC-MS/MS analysis. It is filed as ADME. To be noted: 0.5 h.
Data set [14] in a line: Unbound brain concentration in Wistar rat at 100 mg/kg, po after 1 hr by LC-MS/MS analysis. It counts as ADME, organism-based. To be noted: in vivo.
Data set [15] in a line: Ratio of unbound brain concentration in Wistar rat to IC50 for recombinant human CaV 3.2 channel expressed in HEK293 cells. It is filed as ADME, cell-based.
Data set [16] in a line: Drug uptake in Wistar rat cerebrospinal fluid at 100 mg/kg, po after 1 hr by LC-MS/MS analysis. It counts as ADME, organism-based. As to conditions: read-out: Drug uptake.
In data set [17] the test system is MDR1. The data set can be described thus: Efflux ratio for apparent permeability in MDCK1 cells expressing MDR1. To be noted: dog, MDCK-MDR1. It is filed as ADME, cell-based, Canis lupus familiaris.
Data set [18] is described as follows: Lipophilicity, logD of compund at pH 7.4. It is filed as physicochemical. To be noted: buffer.
Data set [19] in a line: Drug uptake in Wistar rat brain at 100 mg/kg, po after 1 hr by LC-MS/MS analysis. It counts as ADME, organism-based. To be noted: read-out: Drug uptake.
Data set [20] in a line: AUC in Wistar rat at 100 mg/kg administered through oral gavage up to 24 hrs by LC-MS-MS analysis. It is filed as ADME, organism-based. Set-up: dose 100 mg/kg, time < 24 hr, route oral. To be noted: in vivo.
A short description of data set [21]: Tmax in Wistar rat at 100 mg/kg administered through oral gavage by LC-MS-MS analysis. It is filed as ADME, organism-based. To be noted: in vivo.
The nature of data set [22]: Fraction unbound in Wistar rat brain at 100 mg/kg, po after 1 hr by LC-MS/MS analysis. It is filed as ADME, organism-based.
Data set [23] can be described thus: Dissociation constant, pKa of compound. It counts as physicochemical.
Data set [24] is described as follows: Ratio of drug level in brain to plasma in Wistar rat at 100 mg/kg, po after 1 hr by LC-MS/MS analysis. It is filed as ADME, organism-based.
The nature of data set [25]: Unbound plasma concentration in Wistar rat at 100 mg/kg, po after 1 hr by LC-MS/MS analysis. It is filed as ADME, organism-based. To be noted: in vivo.
Data set [26] deals with MDR1. The data set can be described thus: Apparent permeability from apical side to basolateral side in MDCK1 cells expressing MDR1. It counts as ADME, cell-based, Canis lupus familiaris. To be noted: dog, MDCK-MDR1.
Data set [27] can be described thus: Ratio of unbound brain concentration in Wistar rat to IC50 for recombinant human CaV 3.3 channel expressed in HEK293 cells. It is filed as ADME, cell-based.
A short description of data set [28]: Drug uptake in Wistar rat plasma at 100 mg/kg, po after 1 hr by LC-MS/MS analysis. It counts as ADME, organism-based.
The nature of data set [29]: Ratio of unbound brain concentration to unbound plasma concentration in Wistar rat at 100 mg/kg, po after 1 hr by LC-MS/MS analysis. It is filed as ADME, organism-based.
Data set [30] concerns MDR1. Description: Apparent permeability from basolateral side to apical side in MDCK1 cells expressing MDR1. To be noted: dog, MDCK-MDR1. It counts as ADME, cell-based, Canis lupus familiaris.
A short description of data set [31]: Ratio of unbound brain concentration in Wistar rat to IC50 for recombinant human CaV 3.1 channel expressed in HEK293 cells. It counts as ADME, cell-based.
Data set [32] in a line: Cmax in Wistar rat at 100 mg/kg administered through oral gavage up to 24 hrs by LC-MS-MS analysis. It counts as ADME, organism-based. Set-up: dose 100 mg/kg, route oral. As to conditions: in vivo.
A short description of data set [33]: Fraction unbound in Wistar rat plasma at 100 mg/kg, po after 1 hr by LC-MS/MS analysis. It is filed as ADME, organism-based.

In brackets after ≈: the same amount, converted by molar mass.

Take `C[C@@H]1CN(Cc2ccccc2)c2cnccc2[C@H](C)N1C(=O)NCc1ccccc1` [listing 1 of 2 here]: the results for the Activity in data set [1], in data set [2] and in data set [3] were 100%, 50% and 50%, respectively.

As a reminder, the IC50 is the midpoint of a concentration-inhibition curve. `C[C@@H]1CN(Cc2ccccc2)c2cnccc2[C@H](C)N1C(=O)NCc1ccccc1` [listing 2 of 2 here]: the IC50 in data set [4] was 11 nM; in data set [5], 102 nM; against Cytochrome P450 3A4, 23 to 31 nM; in data set [6], 138 nM. Further, in the data set with Rattus norvegicus, the Activity result is recorded as “Non-Toxic”.

By solubility is commonly meant how much of the substance goes into solution per volume. As for `COCCC(=O)N1[C@H](C)CN(Cc2ccccc2)c2ccccc2[C@@H]1C` (racemic), the figures for the solubility in data set [7], in [10] and in data set [12] were 27 µg/mL (≈ 76.6 µM), 195 µg/mL (≈ 553 µM) and 58 µg/mL (≈ 165 µM), respectively. In addition, in data set [8], the Drug metabolism result was “Metabolite_Detected”. In addition, the microsomal CLint at 1 µM in [9] and in [11] was over 1250 µL/min/mg each time.

In the case of `COCCC(=O)N1[C@H](C)CNc2ccccc2[C@@H]1C` (racemic), the Drug metabolism result in data set [13] is listed as “Metabolite_Detected”.

In general, efflux ratio refers to the permeability from basolateral to apical divided by that in the opposite direction, in the common usage. The logD is lipophilicity at a set pH, counting ionised and neutral species. In general, AUC refers to concentration integrated over time. As a reminder, the Tmax is the time at which the peak concentration occurs. In general, fraction unbound refers to free concentration divided by total concentration. By pKa is commonly meant the negative logarithm of the acid dissociation constant. As a reminder, the Papp A→B is the apparent permeability from the apical to the basolateral side of a cell layer. A word on the Papp B→A: it is how fast a substance crosses the layer from the basolateral side. The term Cmax denotes the peak of the concentration-time curve. For the compound `C[C@@H]1CN(Cc2ccccc2)c2cnccc2[C@H](C)N1C(=O)NCc1ccccc1` (racemic), the solubility in data set [7] is 42 µg/mL (≈ 105 µM); in data set [10], 318 µg/mL (≈ 794 µM); in data set [12] it was 89 µg/mL (≈ 222 µM). The values for the IC50 in data set [4], in data set [5] and in [6] were 25 nM, 236 nM and 142 nM, respectively. In addition, the “Drug uptake(free)” value in data set [14] came out at 35 nM. In addition, the Ratio in data set [15] came out at 0.15; in data set [27], 1.5; in [31], 0.25. In addition, the concentration at 1 h worked out at 494 nM in [16], 1600 nM in data set [19] and 6780 nM in data set [28]. In addition, the efflux ratio in the data set on MDR1 [17] came out at 3.4. Besides, in [18], the logD came to 3.1. Also, the microsomal CLint at 1 µM in data set [9] came out at 276 µL/min/mg. The compound further displayed an AUC at 24 h in data set [20] of 21800 ng·h/mL. The Tmax in data set [21] came to 30 min. Moreover, the fraction unbound at 1 h in [22] was found to be 0.022; in data set [33] it was 0.019. The same compound showed a pKa in data set [23] of 6.2. In addition, the BPR in data set [24] turned out to be 24%; in data set [29] it was 27%. Also, the “Cp(f)” value in data set [25] was found to be 128 nM. Besides, the Papp A→B in the data set with MDR1 [26] came to 16.6 ×10⁻⁶ cm/s. In addition, in the data set on MDR1 [30], the Papp B→A was determined as 55.8 ×10⁻⁶ cm/s. The compound further returned a Cmax in data set [32] of 5440 ng/mL.

The values above are taken from ChEMBL document CHEMBL3864167, “Structure-Activity Relationship, Drug Metabolism and Pharmacokinetics Properties Optimization, and in Vivo Studies of New Brain Penetrant Triple T-Type Calcium Channel Blockers” (J Med Chem, 2016).
